Laboratory results from patent US8110681B2, “Compounds for the treatment of spinal muscular atrophy and other uses” (The United States of America as represented by the …, priority 2006, dated 2012).
Like-named read-outs stand apart in the source and are kept apart here.

System: SMN2-linked luciferase-reporter gene construct
Test: SMN splice reporter assay (SMN2-linked luciferase reporter, Example 10)
Format: cell-based
Details: for EC50: SMN2-linked luciferase reporter
Source text: Cervical carcinoma cell lines were transformed with a SMN2-linked luciferase-reporter gene construct. The reporter is designed to detect shifts in the alternative splicing of SMN2 sequences. In particular, the reporter is constructed as a fusion of the alternatively spliced sequences of the SMN2 gene and the luciferase gene. Luciferase sequences are in the correct translational reading frame only when the SMN2 sequences are spliced according to the normal SMN1 mechanism (e.g., splicing to include exon 7), which allows for translation of the stable SMN protein. Compounds were tested in the assay by administering the compound to the cell line and detecting an increase in the luciferase activity. The assay is described in greater detail in Zhang et al., Gene Ther., 8, 1532-8 (2001). Compounds were administered as described in Lunn et al, Chem. & Biol, 11, 1489-1493 (2004).
The results are reported as a fold-increase over a baseline reading of transformed cells without any test compound.

[1] = maximum fold increase of reporter signal, average, read-out: SMN Splice Reporter Assay (Example 10) Avg MaxFold Increase

SMILES	EC50 (average)	maximal fold induction [1]	maximal fold induction (read-out: SMN Splice Reporter Assay (Example 10) Avg MaxFold Increase, maximum fold increase of reporter signal, average, heading: SMN Splice Reporter Assay Avg MaxFold Increase)
COC(=O)C(C)c1ccc(N2Cc3ccccc3C2)cc1 (stereo not drawn) [ALB-112192]	5720 nM	1.41	
CC(C(=O)OC(C)(C)C)c1ccc(N2Cc3ccccc3C2=O)c(-c2cncnc2)c1 (stereo not drawn) [ALB-112194]		1.1	
CC(C(=O)OC(C)(C)C)c1ccc(N2Cc3ccccc3C2=O)cc1-c1cncnc1 (stereo not drawn) [ALB-112195]		1.06	
CC(C(=O)OC(C)(C)C)c1ccc(N2Cc3ccccc3C2=O)c(-c2cccs2)c1 (stereo not drawn) [ALB-112196]		1.09	
CC(C(=O)OC(C)(C)C)c1ccc(N2Cc3ccccc3C2=O)cc1-c1ccccc1 (stereo not drawn) [ALB-112197]		1.07	
CC(C(=O)O)c1ccc(N2Cc3ccccc3C2=O)c(-c2cccnc2)c1 (stereo not drawn) [ALB-112198]		1.12	
CC(C(=O)O)c1ccc(N2Cc3ccccc3C2=O)cc1-c1cccnc1 (stereo not drawn) [ALB-112199]		1.08	
CC(C(=O)O)c1ccc(N2Cc3c(cccc3-c3ccccc3)C2=O)cc1 (stereo not drawn) [ALB-112220]		1.22	
Cc1ccc(-c2cccc3c2CN(c2ccc(C(C)C(=O)O)cc2)C3=O)cc1 (stereo not drawn) [ALB-112221]		1.33	
COc1ccc(-c2cccc3c2CN(c2ccc(C(C)C(=O)O)cc2)C3=O)cc1 (stereo not drawn) [ALB-112222]		1.42	
CC(C(=O)O)c1ccc(N2Cc3c(cccc3-c3ccc(Cl)cc3)C2=O)cc1 (stereo not drawn) [ALB-112223]	11000 nM	1.31	
CC(C(=O)O)c1ccc(N2Cc3c(cccc3-c3cccnc3)C2=O)cc1 (stereo not drawn) [ALB-112224]		1.3	
CC(C(=O)O)c1ccc(N2Cc3c(cccc3-c3cccs3)C2=O)cc1 (stereo not drawn) [ALB-112225]		1.07	
CC(C(=O)O)c1ccc(N2Cc3c(cccc3-c3ccc(Cl)c(Cl)c3)C2=O)cc1 (stereo not drawn) [ALB-112226]	26200 nM	1.44	
CC(C(=O)O)c1ccc(N2Cc3cc4ccsc4cc3C2=O)cc1 (stereo not drawn) [ALB-112228]	669 nM	1.27	
CC(C(=O)O)c1ccc(N2Cc3cccnc3C2=O)cc1 (stereo not drawn) [ALB-112229a]		1.13	
CC(C)(C)OC(=O)Cc1ccc(N2Cc3ccccc3C2=O)cc1 [ALB-112230]		1.1	
CC(C(=O)O)c1ccc(N2Cc3ccccc3C2=O)c(-c2cncnc2)c1 (stereo not drawn) [ALB-112231]		1.08	
CC(C(=O)O)c1ccc(N2Cc3ccccc3C2=O)cc1-c1cncnc1 (stereo not drawn) [ALB-112232]		1.05	
CC(C(=O)O)c1ccc(N2Cc3ccccc3C2=O)c(-c2cccs2)c1 (stereo not drawn) [ALB-112233]		1.03	
CC(C(=O)O)c1ccc(N2Cc3ccccc3C2=O)cc1-c1ccccc1 (stereo not drawn) [ALB-112234]	25400 nM	1.26	
O=C(O)Cc1ccc(N2Cc3ccccc3C2=O)cc1 [ALB-112235]		0.941	
CC(C(=O)OC(C)(C)C)c1ccc(N2Cc3ccc(Br)cc3C2=O)cc1 (stereo not drawn) [ALB-112327]	4210 nM	1.47	
CC(C(=O)OC(C)(C)C)c1ccc(N2Cc3ccccc3C2=O)cc1-c1ccc(Cl)cc1 (stereo not drawn) [ALB-112328]		1.04	

SMILES	EC50 (average)	maximal fold induction [1]	maximal fold induction (read-out: SMN Splice Reporter Assay (Example 10) Avg MaxFold Increase, maximum fold increase of reporter signal, average, heading: SMN Splice Reporter Assay Avg MaxFold Increase)
CC(C(=O)O)c1ccc(N2Cc3ccccc3C2=O)cc1-c1ccc(Cl)cc1 (stereo not drawn) [ALB-112329]		1.09	
CC(C#N)c1ccc(N2Cc3ccccc3C2=O)cc1 (stereo not drawn) [ALB-112330]	259 nM	1.46	
CC(C(=O)OC(C)(C)C)c1ccc(N2Cc3c(cccc3-c3cncnc3)C2=O)cc1 (stereo not drawn) [ALB-112349]		1.06	
CC(C(=O)OC(C)(C)C)c1ccc(N2Cc3c(C#N)cccc3C2=O)cc1 (stereo not drawn) [ALB-112350]		1.18	
CC(C(=O)O)c1ccc(N2Cc3c(C#N)cccc3C2=O)cc1 (stereo not drawn) [ALB-112351]		1.21	
CC(C(=O)O)c1ccc(N2Cc3ccc(Br)cc3C2=O)cc1 (stereo not drawn) [ALB-112352]	130 nM		1.12
CC(C(=O)O)c1ccc(N2Cc3c(cccc3-c3cncnc3)C2=O)cc1 (stereo not drawn) [ALB-112353]	16000 nM	1.53	
CC(=O)c1ccc(N2Cc3ccccc3C2=O)cc1 [ALB-112360]	424 nM	1.14	
CC(C(=O)OC(C)(C)C)c1cccc(N2Cc3ccccc3C2=O)c1 (stereo not drawn) [ALB-112361]		1.09	
CC(C)(C)OC(=O)C1(c2ccc(N3Cc4ccccc4C3=O)cc2)CCCC1 [ALB-112362]		1.05	
CCC(C(=O)OC(C)(C)C)c1ccc(N2Cc3ccccc3C2=O)cc1 (stereo not drawn) [ALB-112364]	3260 nM	1.21	
CC(C)(C)OC(=O)C1(c2ccc(N3Cc4ccccc4C3=O)cc2)CC1 [ALB-112365]	12400 nM	1.5	
O=C1c2ccccc2CN1c1ccc(C2(C(=O)O)CCCC2)cc1 [ALB-112431]		1.21	
CCC(C(=O)O)c1ccc(N2Cc3ccccc3C2=O)cc1 (stereo not drawn) [ALB-112433]	4180 nM	1.32	
O=C1c2ccccc2CN1c1ccc(C2(C(=O)O)CC2)cc1 [ALB-112434]		1.28	
CC(C(=O)OC(C)(C)C)c1ccc(N2Cc3ccccc3C2=O)cc1C#N (stereo not drawn) [ALB-112435]	5980 nM	1.2	
CC(C(=O)OC(C)(C)C)c1ccc(N2Cc3ccccc3C2=O)c(C#N)c1 (stereo not drawn) [ALB-112436]		1.07	
CC(C(=O)O)c1ccc(N2Cc3ccccc3C2=O)cc1C#N (stereo not drawn) [ALB-112437]		1.09	
Cc1cc(N2Cc3ccccc3C2=O)ccc1C(C)C(=O)OC(C)(C)C (stereo not drawn) [ALB-112438]	2710 nM	1.42	
CC(C(=O)OC(C)(C)C)c1ccc(N2Cc3ccc(-c4ccccc4)cc3C2=O)cc1 (stereo not drawn) [ALB-112441]		1.08	
Cc1ccc(-c2ccc3c(c2)C(=O)N(c2ccc(C(C)C(=O)OC(C)(C)C)cc2)C3)cc1 (stereo not drawn) [ALB-112442]		1.11	
CC(C(=O)OC(C)(C)C)c1ccc(N2Cc3ccc(-c4ccc(Cl)cc4)cc3C2=O)cc1 (stereo not drawn) [ALB-112443]		1.07	
CC(C(=O)OC(C)(C)C)c1ccc(N2Cc3cc(C#N)ccc3C2=O)cc1 (stereo not drawn) [ALB-112444]	307 nM	1.04	
CC(C(=O)OC(C)(C)C)c1ccc(N2Cc3ccc(C#N)cc3C2=O)cc1 (stereo not drawn) [ALB-112445]		1.13	

SMILES	EC50 (average)	maximal fold induction [1]	maximal fold induction (read-out: SMN Splice Reporter Assay (Example 10) Avg MaxFold Increase, maximum fold increase of reporter signal, average, heading: SMN Splice Reporter Assay Avg MaxFold Increase)
CC(C(=O)O)c1ccc(N2Cc3ccc(-c4ccccc4)cc3C2=O)cc1 (stereo not drawn) [ALB-112446]	1700 nM	1.45	
Cc1ccc(-c2ccc3c(c2)C(=O)N(c2ccc(C(C)C(=O)O)cc2)C3)cc1 (stereo not drawn) [ALB-112447]	2020 nM	1.27	
COc1ccc(-c2ccc3c(c2)C(=O)N(c2ccc(C(C)C(=O)O)cc2)C3)cc1 (stereo not drawn) [ALB-112448]	6190 nM	1.55	
CC(C(=O)O)c1ccc(N2Cc3ccc(-c4ccc(Cl)cc4)cc3C2=O)cc1 (stereo not drawn) [ALB-112449]		1.16	
COc1ccc(-c2ccc3c(c2)C(=O)N(c2ccc(C(C)C(=O)OC(C)(C)C)cc2)C3)cc1 (stereo not drawn) [ALB-112450]		1.09	
CC(C(=O)OC(C)(C)C)c1ccc(N2Cc3cccc(C#N)c3C2=O)cc1 (stereo not drawn) [ALB-112472]		1.12	
CC(C(=O)OC(C)(C)C)c1ccc(N2Cc3ccc(-c4cccnc4)cc3C2=O)cc1 (stereo not drawn) [ALB-112473]	2 nM	1.03	
CC(C(=O)OC(C)(C)C)c1ccc(N2Cc3ccc(-c4cccs4)cc3C2=O)cc1 (stereo not drawn) [ALB-112474]		1.18	
CC(C(=O)OC(C)(C)C)c1ccc(N2Cc3ccc(-c4ccc(Cl)c(Cl)c4)cc3C2=O)cc1 (stereo not drawn) [ALB-112475]	114 nM	1.05	
CC(C(=O)OC(C)(C)C)c1ccc(N2Cc3ccc(-c4cncnc4)cc3C2=O)cc1 (stereo not drawn) [ALB-112476]		1.08	
CC(C(=O)O)c1ccc(N2Cc3cc(C#N)ccc3C2=O)cc1 (stereo not drawn) [ALB-112477]	6980 nM	1.18	
CC(C(=O)O)c1ccc(N2Cc3ccc(C#N)cc3C2=O)cc1 (stereo not drawn) [ALB-112478]	2040 nM	1.23	
Cc1cc(C(C)C(=O)OC(C)(C)C)ccc1N1Cc2ccccc2C1=O (stereo not drawn) [ALB-112483]		1.03	
Cc1cc(N2Cc3ccccc3C2=O)ccc1C(C)C(=O)O (stereo not drawn) [ALB-112485]		1.3	
Cc1cc(C(C)C(=O)O)ccc1N1Cc2ccccc2C1=O (stereo not drawn) [ALB-112487]		1.17	
CC(C(=O)O)c1ccc(N2Cc3ccc(-c4cccnc4)cc3C2=O)cc1 (stereo not drawn) [ALB-112514]		1.25	
CC(C(=O)O)c1ccc(N2Cc3ccc(-c4cccs4)cc3C2=O)cc1 (stereo not drawn) [ALB-112515]	494 nM	1.62	
CC(C(=O)O)c1ccc(N2Cc3ccc(-c4ccc(Cl)c(Cl)c4)cc3C2=O)cc1 (stereo not drawn) [ALB-112516]		1.2	
CC(C(=O)O)c1ccc(N2Cc3ccc(-c4cncnc4)cc3C2=O)cc1 (stereo not drawn) [ALB-112517]		1.25	
CC(C(=O)O)c1ccc(N2Cc3cccc(C#N)c3C2=O)cc1 (stereo not drawn) [ALB-112518]		1.12	
CC(C(=O)O)c1ccc(N2Cc3cc(N4CCOCC4)ccc3C2=O)cc1 (stereo not drawn) [ALB-112554]		1.06	
Cc1cccc2c1CN(c1ccc(C(C)C(=O)O)cc1)C2=O (stereo not drawn) [ALB-112555]	5900 nM	1.64	
Cc1ccc2c(c1)CN(c1ccc(C(C)C(=O)O)cc1)C2=O (stereo not drawn) [ALB-112556]	146 nM	1.56	
Cc1cccc2c1C(=O)N(c1ccc(C(C)C(=O)O)cc1)C2 (stereo not drawn) [ALB-112557]	288 nM	1.73	
